Tests used:
[1] = tested on: NB4 cells (human promyelocitic leukemia); test: Differentiation of NB4 cells into granulocytes, NBT dye reduction, spectrophotometric assay at 540 nm; assay type: cell-based; conditions: 2-3 days, FIG. 2
Method: The pro-differentiative activity of the spirolaxine (ST 1397) and the ATRA, both alone and in association, was assessed in this experimental model.
NB4 cells were grown in 25 cm^2 flasks at a density of approx 100.000 cells/ml in 5 ml of RPMI 1640 culture with 10% fetal calf serum (FCS). After one day, the cells were treated with ATRA at a concentration of 10^−7 M, or with ST 1397 at doses of 0,1, 0,5 and 1 μM, or with equivalent volumes of the two compounds in association. Then, the cells were put into the incubator for 2-3 days, without replacing the culture medium.
At the end of the second or third day of treatment, the differentiation of the cells into granulocytes was measured by the NBT dye reduction and the spectrophotomectric assay of the samples.
The retinoic acid was dissolved in the culture medium with a solution of DMSO 1 mM. Control cultures were treated with equivalent volumes of DMSO, since this compound (DMSO) can be differentiating in certain experimental conditions.
To measure the differentiative effect, 500.000 cells have been gathered from each sample, centrifuged and re-suspended in 1 ml of RPMI 1640 culture with 10% serum, 1 mg/ml of nitroblue tetrazolium (NBT) and 100 ng of PMA. The re-suspended cells were incubated at 37° C. for 20-60 min. […]
The samples were sonicated to complete lysis and then read with a spectrophotometer at a wave length of 540 nm.

PPARγ receptor = target: T1, PPARγ receptor (Homo sapiens, UniProt P37231); test: Activation of PPARγ: cellular transfection with PPAR-γ plasmid and TK-PPAR-Reluc luciferase reporter vector; conditions: NIH-3T3 murine fibroblasts, 24 hour-treatment, spirolaxine 40 nM, FIG. 1
T1 sequence (P37231 1-505): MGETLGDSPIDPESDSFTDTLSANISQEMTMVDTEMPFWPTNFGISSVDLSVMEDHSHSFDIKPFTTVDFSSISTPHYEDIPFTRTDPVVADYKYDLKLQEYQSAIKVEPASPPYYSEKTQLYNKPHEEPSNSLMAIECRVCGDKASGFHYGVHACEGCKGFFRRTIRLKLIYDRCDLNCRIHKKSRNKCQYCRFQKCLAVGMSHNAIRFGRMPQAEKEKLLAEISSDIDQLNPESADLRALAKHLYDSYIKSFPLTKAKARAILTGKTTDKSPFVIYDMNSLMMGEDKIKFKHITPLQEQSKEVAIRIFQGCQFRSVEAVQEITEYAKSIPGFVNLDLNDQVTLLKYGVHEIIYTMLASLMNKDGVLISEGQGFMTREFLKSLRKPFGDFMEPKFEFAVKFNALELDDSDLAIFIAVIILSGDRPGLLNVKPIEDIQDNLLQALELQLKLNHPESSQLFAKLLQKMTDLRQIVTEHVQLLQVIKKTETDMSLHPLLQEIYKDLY
Method: The activation of the expression of the luciferase was put into evidence by transfecting the NIH-3T3 murine fibroblasts with the PPAR-γ plasmid and the TK-PPAR-Reluc reporter vector; the luciferase activity was measured after 24 hour-treatment with the spirolaxine at a concentration of 40 nM.

| Structure (SMILES) | differentiation in NB4 cells (NBT reduction) ([1]; ATRA alone at 10^−7 M) | differentiation in NB4 cells (NBT reduction) ([1]; ST 1397 alone at 0,1, 0,5 and 1 μM) | luciferase activity mediated by the TK-PPAR-Reluc reporter vector (index of activation of the receptor) versus control (PPARγ receptor) |
| --- | --- | --- | --- |
| CC1=C(/C=C/C(C)=C/C=C/C(C)=C/C(=O)O)C(C)(C)CCC1 [ATRA, all-trans retinoic acid, reference compound] | differentiative effect was already well known |  |  |
| COc1cc(O)cc2c1C(=O)OC2CCCCCC1CCCC2(CCC(C)O2)O1 (stereo not drawn) [spirolaxine] |  | does not induce differentiation | seven times higher than the control |

Reference: patent publication US7276533B2, “Compositions useful for the treatment of pathologies responding to the activation of PPAR-gamma receptor” (Sigma-Tau Industrie Farmaceutiche Riunite S.p.A., priority 2001, dated 2007)
